Assay results from ChEMBL document CHEMBL5665443, “Enzyme Inhibitor Single Concentration assay results for EUbOPEN Chemogenomics Library” (2024).

Assays:
Details in all cases: Compound Concentration 10.0 uM, Hit No
[1] = target: T1, Adenine DNA glycosylase (Homo sapiens) (UniProt Q9UIF7);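 also: human MUTYH activity read as 594 nm fluorescence from cleavage and release of a quenched DNA duplex, coupled with APE1 for strand incision, lower signal meaning inhibition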
T1 sequence (whole entry): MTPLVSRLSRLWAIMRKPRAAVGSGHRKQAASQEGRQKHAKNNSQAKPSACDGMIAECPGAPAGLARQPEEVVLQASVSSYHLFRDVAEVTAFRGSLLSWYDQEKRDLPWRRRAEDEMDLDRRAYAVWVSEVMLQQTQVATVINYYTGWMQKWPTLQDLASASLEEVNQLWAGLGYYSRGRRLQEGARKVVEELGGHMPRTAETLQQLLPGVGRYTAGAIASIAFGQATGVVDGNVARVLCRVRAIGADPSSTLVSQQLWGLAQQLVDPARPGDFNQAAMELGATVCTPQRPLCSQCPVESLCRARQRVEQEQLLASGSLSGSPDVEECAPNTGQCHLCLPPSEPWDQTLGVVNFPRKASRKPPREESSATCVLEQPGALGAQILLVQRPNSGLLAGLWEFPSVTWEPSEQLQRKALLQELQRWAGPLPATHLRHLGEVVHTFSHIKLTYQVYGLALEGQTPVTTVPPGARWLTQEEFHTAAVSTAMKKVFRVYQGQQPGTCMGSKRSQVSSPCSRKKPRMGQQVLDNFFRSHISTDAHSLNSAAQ
Description: Inhibition of MUTYH by quantifying inhibition of MUTYH-mediated cleavage and dissociation of quenched duplex DNA oligonucleotides, measured as fluorescence at 594 nm. To generate a functional strand incision and increase turn-over this assay is coupled to APE1.

[2] = target: DNA-3-methyladenine glycosylase (Homo sapiens) (UniProt P29372);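 also: enzyme assay where MPG cuts a quenched duplex DNA oligonucleotide probe, paired with APE1 for strand incision and turnover, read as fluorescence at 594 nm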
Description: Inhibition of MPG by quantifying inhibition of MPG-mediated cleavage and dissociation of quenched duplex DNA oligonucleotides, measured as fluorescence at 594 nm. To generate a functional strand incision and increase turn-over this assay is coupled to APE1.

[3] = target: Endonuclease 8-like 1 (Homo sapiens) (UniProt Q96FI4);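 also: fluorescence at 594 nm from quenched duplex DNA oligonucleotides released by NEIL1 cleavage and strand separation, reported as reduction of this enzyme activity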
Description: Inhibition of NEIL1 by quantifying inhibition of NEIL1-mediated cleavage and dissociation of quenched duplex DNA oligonucleotides, measured as fluorescence at 594 nm.

[4] = target: T2, Endonuclease III-like protein 1 (Homo sapiens) (UniProt P78549);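 also: enzyme assay tracking NTHL1 cutting and release of a quenched double-stranded DNA oligo substrate, read as fluorescence at 594 nm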
T2 sequence (whole entry): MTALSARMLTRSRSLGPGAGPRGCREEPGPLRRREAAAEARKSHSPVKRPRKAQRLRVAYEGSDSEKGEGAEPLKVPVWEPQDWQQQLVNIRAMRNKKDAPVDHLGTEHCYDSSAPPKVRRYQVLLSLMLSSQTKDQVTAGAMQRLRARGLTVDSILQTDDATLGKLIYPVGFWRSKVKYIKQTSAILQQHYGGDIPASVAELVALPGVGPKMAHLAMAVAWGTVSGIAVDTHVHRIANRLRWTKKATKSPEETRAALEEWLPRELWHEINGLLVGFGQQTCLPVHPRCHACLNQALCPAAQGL
Description: Inhibition of NTHL1 by quantifying inhibition of NTHL1-mediated cleavage and dissociation of quenched duplex DNA oligonucleotides, measured as fluorescence at 594 nm.

[5] = target: T3, Endonuclease 8-like 2 (Homo sapiens) (UniProt Q969S2);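 also: fluorescence at 594 nm reports NEIL2 cutting and release of a quenched double-stranded DNA oligo substrate, reduced signal read as inhibition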
T3 sequence (whole entry): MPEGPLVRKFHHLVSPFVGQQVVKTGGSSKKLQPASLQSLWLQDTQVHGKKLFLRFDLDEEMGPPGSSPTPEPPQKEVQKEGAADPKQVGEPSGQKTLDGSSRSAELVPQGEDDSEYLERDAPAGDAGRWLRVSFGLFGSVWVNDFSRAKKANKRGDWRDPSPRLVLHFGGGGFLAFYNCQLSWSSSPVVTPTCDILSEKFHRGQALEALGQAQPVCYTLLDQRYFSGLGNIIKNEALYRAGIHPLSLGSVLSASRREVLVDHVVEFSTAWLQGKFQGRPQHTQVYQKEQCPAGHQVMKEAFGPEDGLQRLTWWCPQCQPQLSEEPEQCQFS
Description: Inhibition of NEIL2 by quantifying inhibition of NEIL2-mediated cleavage and dissociation of quenched duplex DNA oligonucleotides, measured as fluorescence at 594 nm.

[6] = target: N-glycosylase/DNA lyase (Homo sapiens) (UniProt O15527);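 also: OGG1 cleavage of a quenched duplex DNA oligonucleotide, coupled to APE1 for strand incision, read as fluorescence at 594 nm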
Description: Inhibition of OGG1 by quantifying inhibition of OGG1-mediated cleavage and dissociation of quenched duplex DNA oligonucleotides, measured as fluorescence at 594 nm. To generate a functional strand incision and increase turn-over this assay is coupled to APE1.

[7] = target: Methyl-CpG-binding domain protein 4 (Homo sapiens) (UniProt O95243);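 also: MBD4 activity read as fluorescence at 594 nm from cleavage and release of a quenched duplex DNA oligonucleotide, with APE1 coupled to incise the strand and raise turnover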
Description: Inhibition of MBD4 by quantifying inhibition of MBD4-mediated cleavage and dissociation of quenched duplex DNA oligonucleotides, measured as fluorescence at 594 nm. To generate a functional strand incision and increase turn-over this assay is coupled to APE1.

[8] = target: G/T mismatch-specific thymine DNA glycosylase (Homo sapiens) (UniProt Q13569);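 also: human TDG cleavage of quenched duplex DNA oligonucleotides coupled to APE1, strand release read as fluorescence at 594 nm, inhibition of TDG activity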
Description: Inhibition of TDG by quantifying inhibition of TDG-mediated cleavage and dissociation of quenched duplex DNA oligonucleotides, measured as fluorescence at 594 nm. To generate a functional strand incision and increase turn-over this assay is coupled to APE1.

[9] = target: T4, Single-strand selective monofunctional uracil DNA glycosylase (Homo sapiens) (UniProt Q53HV7);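 also: enzymatic SMUG1 assay coupled with APE1, reading fluorescence at 594 nm released when a quenched double-stranded DNA oligonucleotide substrate is cleaved and separated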
T4 sequence (whole entry): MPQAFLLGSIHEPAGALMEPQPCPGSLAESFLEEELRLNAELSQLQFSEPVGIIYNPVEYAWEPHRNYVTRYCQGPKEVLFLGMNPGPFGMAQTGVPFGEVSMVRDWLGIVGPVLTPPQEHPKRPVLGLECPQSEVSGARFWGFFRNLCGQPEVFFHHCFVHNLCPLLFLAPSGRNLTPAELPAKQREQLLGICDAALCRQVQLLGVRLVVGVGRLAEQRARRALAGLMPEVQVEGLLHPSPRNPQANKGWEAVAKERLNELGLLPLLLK
Description: Inhibition of SMUG1 by quantifying inhibition of SMUG1-mediated cleavage and dissociation of quenched duplex DNA oligonucleotides, measured as fluorescence at 594 nm. To generate a functional strand incision and increase turn-over this assay is coupled to APE1.

[10] = target: Uracil-DNA glycosylase (Homo sapiens) (UniProt P13051);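 also: UNG excision on a quenched double-stranded DNA oligo probe, with APE1 added for strand incision and turnover, read as fluorescence at 594 nm as strands separate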
Uracil-DNA glycosylase (Homo sapiens), sequence (P13051 whole entry): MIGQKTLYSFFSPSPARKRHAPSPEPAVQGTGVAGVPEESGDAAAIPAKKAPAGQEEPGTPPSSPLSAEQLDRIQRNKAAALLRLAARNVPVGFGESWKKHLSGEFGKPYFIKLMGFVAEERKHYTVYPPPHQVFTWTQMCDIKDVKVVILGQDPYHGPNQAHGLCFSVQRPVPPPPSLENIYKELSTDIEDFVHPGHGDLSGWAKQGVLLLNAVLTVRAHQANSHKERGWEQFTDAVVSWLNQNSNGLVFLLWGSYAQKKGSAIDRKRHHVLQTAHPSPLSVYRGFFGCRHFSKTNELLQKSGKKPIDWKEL
Description: Inhibition of UNG by quantifying inhibition of UNG-mediated cleavage and dissociation of quenched duplex DNA oligonucleotides, measured as fluorescence at 594 nm. To generate a functional strand incision and increase turn-over this assay is coupled to APE1.

Endonuclease 8-like 1 (Homo sapiens), sequence (Q96FI4 whole entry): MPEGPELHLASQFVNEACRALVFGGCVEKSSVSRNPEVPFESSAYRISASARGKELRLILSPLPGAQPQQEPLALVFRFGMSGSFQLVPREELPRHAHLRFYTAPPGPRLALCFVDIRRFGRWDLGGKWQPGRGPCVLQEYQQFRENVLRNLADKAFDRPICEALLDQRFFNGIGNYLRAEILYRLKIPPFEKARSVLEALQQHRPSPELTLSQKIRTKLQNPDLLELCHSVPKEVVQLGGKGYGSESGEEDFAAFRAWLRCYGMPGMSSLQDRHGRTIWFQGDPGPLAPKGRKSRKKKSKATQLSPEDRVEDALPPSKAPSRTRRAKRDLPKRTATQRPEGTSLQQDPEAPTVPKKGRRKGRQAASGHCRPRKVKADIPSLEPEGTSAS
DNA-3-methyladenine glycosylase (Homo sapiens), sequence (P29372 whole entry): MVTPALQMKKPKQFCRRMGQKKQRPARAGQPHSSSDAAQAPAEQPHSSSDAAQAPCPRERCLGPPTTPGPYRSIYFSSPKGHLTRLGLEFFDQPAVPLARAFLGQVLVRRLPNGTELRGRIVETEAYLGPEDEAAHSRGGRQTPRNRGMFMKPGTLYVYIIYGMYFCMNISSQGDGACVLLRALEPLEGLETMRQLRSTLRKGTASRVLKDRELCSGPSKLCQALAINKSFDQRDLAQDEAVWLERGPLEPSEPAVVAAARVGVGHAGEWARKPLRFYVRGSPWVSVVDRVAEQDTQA
Methyl-CpG-binding domain protein 4 (Homo sapiens), sequence (O95243 whole entry, the tested form may be a part): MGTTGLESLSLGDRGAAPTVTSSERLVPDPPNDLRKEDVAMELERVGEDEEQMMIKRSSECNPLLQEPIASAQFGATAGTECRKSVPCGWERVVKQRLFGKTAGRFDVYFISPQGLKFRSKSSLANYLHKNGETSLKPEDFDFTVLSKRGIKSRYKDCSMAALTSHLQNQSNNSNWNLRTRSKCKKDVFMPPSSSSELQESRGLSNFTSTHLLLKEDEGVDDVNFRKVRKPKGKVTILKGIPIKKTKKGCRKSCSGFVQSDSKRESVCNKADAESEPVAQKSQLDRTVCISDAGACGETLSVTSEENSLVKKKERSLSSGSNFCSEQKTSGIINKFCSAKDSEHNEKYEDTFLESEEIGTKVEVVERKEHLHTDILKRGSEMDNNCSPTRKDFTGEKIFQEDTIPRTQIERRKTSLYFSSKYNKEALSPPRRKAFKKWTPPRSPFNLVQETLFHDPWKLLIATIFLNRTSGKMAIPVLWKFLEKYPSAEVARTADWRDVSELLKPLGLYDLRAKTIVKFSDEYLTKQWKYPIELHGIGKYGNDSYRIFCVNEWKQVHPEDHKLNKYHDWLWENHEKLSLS
G/T mismatch-specific thymine DNA glycosylase (Homo sapiens), sequence (Q13569 whole entry): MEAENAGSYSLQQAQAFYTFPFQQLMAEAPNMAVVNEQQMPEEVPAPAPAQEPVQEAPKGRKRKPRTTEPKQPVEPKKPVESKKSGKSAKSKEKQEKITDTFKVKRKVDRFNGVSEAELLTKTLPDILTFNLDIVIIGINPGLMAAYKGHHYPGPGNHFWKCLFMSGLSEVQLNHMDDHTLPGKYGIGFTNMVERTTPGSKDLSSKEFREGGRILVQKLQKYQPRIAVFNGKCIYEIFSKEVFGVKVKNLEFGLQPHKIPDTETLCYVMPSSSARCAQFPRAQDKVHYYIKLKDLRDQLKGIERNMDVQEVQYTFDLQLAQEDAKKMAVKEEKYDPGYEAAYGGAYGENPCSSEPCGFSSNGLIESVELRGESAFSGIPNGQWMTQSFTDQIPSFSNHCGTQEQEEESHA
N-glycosylase/DNA lyase (Homo sapiens), sequence (O15527 whole entry, the tested form may be a part): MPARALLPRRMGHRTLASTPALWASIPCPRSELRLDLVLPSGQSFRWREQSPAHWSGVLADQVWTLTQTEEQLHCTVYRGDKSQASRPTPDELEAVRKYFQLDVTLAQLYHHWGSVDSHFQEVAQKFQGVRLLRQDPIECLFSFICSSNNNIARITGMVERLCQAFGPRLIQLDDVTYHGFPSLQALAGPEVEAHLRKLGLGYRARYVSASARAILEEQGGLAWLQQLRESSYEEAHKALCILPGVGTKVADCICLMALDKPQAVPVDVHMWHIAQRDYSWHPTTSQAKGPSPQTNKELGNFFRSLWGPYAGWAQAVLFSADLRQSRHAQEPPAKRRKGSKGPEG

| inhibition [1] | inhibition [2] | inhibition [3] | inhibition [4] | inhibition [5] | inhibition [6] | inhibition [7] | inhibition [8] | inhibition [9] | inhibition [10] | Compound |
| --- | --- | --- | --- | --- | --- | --- | --- | --- | --- | --- |
| 4.93% | 6.03% | 1.64% | 21.2% | -1.62% | -5.35% | 4.69% | 5.61% | -2.33% | -3.3% | CCC(C)(C)/N=C(\NC#N)Nc1cccnc1 |
| 20.6% | 33.7% | 13.8% | 2.22% | 3.22% | 0.561% | 34.6% | 33.1% | 1.62% | -2.53% | CC[C@H](C(=O)Nc1ccccc1N1CCCC1)c1ccccc1 |
| -1.26% | 30% | 12.6% | 7.79% | 10.8% | -6.96% | 19.6% | 44.9% | -5.31% | 3.72% | COc1ccc2cc(S(=O)(=O)N[C@H](CC(=O)N[C@H](Cc3ccc(CN4[C@H](C)CCC[C@@H]4C)cc3)C(=O)N(C)C(C)C)c3ccc4c(c3)OCO4)ccc2c1 |
| 44.3% | 26.7% | 1.57% | 7.79% | 14.7% | 18.7% | 45.7% | 36.1% | 6.31% | -4.34% | CS(=O)(=O)c1cccc(NC(=O)N(Cc2ccc(C(=O)Nc3nnn[nH]3)cc2)c2ccc(C3CCCCC3)cc2)c1 |
